Results reported in US20180206501A1, “CONTROLLING DISEASES AND INSECTS IN PLANTS” (priority 2017, published 2018).

Experiments:
[1] = Appearance of the solution in water pH = 10 at 24 hours; assay type: physicochemical; conditions: 50% stock plus water pH = 10
[2] = tested on: Escherichia coli (E. coli); assay: Microbial testing, standard pour plate count; assay type: cell-based
Description: The purpose of this study was to evaluate the effectiveness of test materials labeled #6, #7 and #8, in killing or reducing Escherichia coli (E. coli). The standard pour plate count test method was used to evaluate Percent Reduction of Colony Forming Units (CFU).
The E. coli (lot number 168756) was purchased from Quanti-Cult™ and is derived from original ATCC® stock cultures. They are received dehydrated. A viable streak plate was colonized from this culture. One colony was transferred to 5 ml of sterile Tryptic Soy Broth (lot # A3303) and incubated overnight. Antimicrobial activity was determined by comparing results from the test sample to simultaneously run controls or from the T0. The concentration of the suspension was determined using serial dilution and plate counts to determine the amount of Colony Forming Units (CFU's)/ml of suspension.
The materials tested in this study are described in the Purpose section. Sterile 0.3 mM KH2PO4 buffer was inoculated to a concentration of ˜1.0-3.0×10^5 CFU/ml. A To plate originated from the inoculated buffer for quantification and prepared 1:100 dilution to insure that viable inoculum was applied in the test system. The test materials were formulated in 20×150 […] test tubes. Aliquots of 0.3 grams of each of the materials (#6, #7 and #8) were added to sterile test tubes. […]

[3] = tested on: Cercospora; assay: Laboratory over-spray of sugar beet leaf cultures on agar incubation plates; assay type: cell-based; conditions: L-1 and Control leaf cultures; 0.5% solution with 5211 surfactant in water; 24 hours incubation
Description: The initial leaf cuttings from L-1 to L-3 were used for additional evaluations. […] All of the leaves were very green, showing no signs of Cercospora. When the leaves were cultured and incubated (three plates per sample), the plate counts on all of the samples were too numerous to count (TNTC) indicating signs of Cercospora infection.
The control sample was taken from a known infected control sample. In addition to the normal culturing process, leaf samples from L-1 and the Control were treated in the laboratory. This involved placing the leaf culture onto the agar incubation plate, over spraying the plate with a 0.5% solution Ztrex 72 and 5211 surfactant in water. The plates were further incubated for 24 hours.
Our Control sample was obtained from Michigan Sugar Company, Bay City, Mich. and was used for all of the initial lab studies.

CO[Si](CCc1ccc(S(=O)(=O)Cl)cc1)(OC)OC [#8, 2-(4-chlorosulfonylphenyl)ethyltrimethoxysilane]
Solution @ 24 hours [1]: Clear | Application, microbial kill [2]: 99.99 | Plate count ([2]; 0.3 grams in 5 ml Tryptic Soy Broth, 1×10^5 CFU E. coli, 48 hours, T0 9.6×10^4 CFU/ml): 16 CFU/ml

CCCCCCCCCCCCCCCCCC[N+](C)(C)CCC[Si](OC)(OC)OC.[Cl-] [Ztrex 72, (CH3O) Si (CH2)N^+ (CH3)2 (C18H37) Cl^−]
Evidence of Cercospora on the incubation plate [3]: no evidence of Cercospora
